The values below come from US20250325677A1, “STAT6 DEGRADERS” (Gilead Sciences, Inc., priority 2024, published 2025).

One test relates to eotaxin-3 release. Description: Human whole blood eotaxin-3 assay (IL-4 stimulated). Type of test: cell-based. The conditions noted are these: human whole blood, IL-4 0.4 nM, 48 hours; geometric mean; given for compounds with >80% Emax; read-out: Eotaxin-3 EC50. The method in brief:
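Human whole blood was preincubated with compound for 120 min at 37 °C, then stimulated with recombinant human IL-4 (E. coli) at 0.4 nM final for 48 h. Inhibition of eotaxin-3 release gave EC50 values.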

In another test the target is STAT6 (Homo sapiens (Human), UniProt P42226). Kind of test: STAT6 degrader assay (HiBiT, HeLa LgBiT clone 4.14). As to conditions: HeLa LgBiT clone 4.14, 4-24 h; for DC50: geometric mean, given for compounds with >80% Emax, read-out: STAT6 degradation DC50. Type of test: cell-based. In outline: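 DC50 (nM) comes from luminescence of non-degraded STAT6 read 0.5 h after Nano-GLO addition, following 4-24 h compound exposure at 37° C. Cells were HeLa clone 4.14 expressing LgBiT with a CRISPR HiBiT tag on endogenous STAT6; 50 μM terfenadine set full degradation.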
Chain of STAT6 (P42226 whole entry): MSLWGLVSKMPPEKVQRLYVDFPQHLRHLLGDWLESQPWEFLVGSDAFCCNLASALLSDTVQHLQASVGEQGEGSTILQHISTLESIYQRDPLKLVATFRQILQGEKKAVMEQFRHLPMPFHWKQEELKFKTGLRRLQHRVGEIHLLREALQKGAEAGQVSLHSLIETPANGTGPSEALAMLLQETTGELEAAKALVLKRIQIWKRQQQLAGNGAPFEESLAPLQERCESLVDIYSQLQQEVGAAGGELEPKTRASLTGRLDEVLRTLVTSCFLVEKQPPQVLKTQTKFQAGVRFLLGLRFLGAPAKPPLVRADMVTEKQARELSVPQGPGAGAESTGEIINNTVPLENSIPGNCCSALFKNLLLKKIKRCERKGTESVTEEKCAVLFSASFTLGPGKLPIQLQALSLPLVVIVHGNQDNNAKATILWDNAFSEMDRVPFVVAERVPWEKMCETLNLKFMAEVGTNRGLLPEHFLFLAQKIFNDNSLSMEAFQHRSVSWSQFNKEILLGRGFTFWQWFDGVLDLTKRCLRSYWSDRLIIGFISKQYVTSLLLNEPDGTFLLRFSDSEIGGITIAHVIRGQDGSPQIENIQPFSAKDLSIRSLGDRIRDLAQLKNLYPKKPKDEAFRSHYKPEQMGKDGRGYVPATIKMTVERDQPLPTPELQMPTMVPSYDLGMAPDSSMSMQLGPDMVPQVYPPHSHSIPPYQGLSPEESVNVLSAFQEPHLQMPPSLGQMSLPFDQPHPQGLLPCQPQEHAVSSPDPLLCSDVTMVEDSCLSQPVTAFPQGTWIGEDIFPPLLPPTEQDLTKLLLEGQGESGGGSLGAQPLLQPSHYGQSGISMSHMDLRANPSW
On the technique in general: HiBiT is a short tag that completes a luciferase, so light tracks the accessible tagged protein.

The structures appear in SMILES notation. Values joined by “and” are separate entries in the source; they are usually repeats but may differ in a detail not shown here. Equal entries are not always repeated.

As for `C[C@@H](c1cc2c(-c3ccc(N)nc3)ccnc2n1C)N1CCC(c2ccc(C(=O)N3CCC(CN4CCN(Cc5ccc6c(c5)n(C)c(=O)n6C5CCC(=O)NC5=O)CC4C(F)(F)F)CC3)cc2)CC1` (stereo partly drawn) [Example 3e31, 3-(5-((4-((1-(4-(1-((S)-1-(4-(6-aminopyridin-3-yl)-1-methyl-1H-pyrrolo[2,3-b]pyridin-2-yl)ethyl)piperidin-4-yl)benzoyl)piperidin-4-yl)methyl)-3-(trifluoromethyl)piperazin-1-yl)methyl)-3-methyl-2-oxo-2,3-dihydro-1H-benzo[d]imidazol-1-yl)piperidine-2,6-dione], the concentration for a half-maximal effect (EC50) – broadly, the concentration needed to bring the measured effect to its halfway point – in the test on eotaxin-3 release stood at 9.3 nM. In addition, on STAT6, the half-maximal degradation concentration (DC50) (usually the concentration giving 50% degradation) is 2 nM.

Consider `C[C@H]1CN(Cc2cc3c(cc2F)n([C@@H]2CCC(=O)NC2=O)c(=O)n3C2CC2)CCN1CC1CCN(C(=O)c2ccc(C3CCN([C@@H](C)c4cc5c(-c6ccc(N)nc6)ccnc5n4C)CC3)cc2)CC1` (single isomer, unassigned) [Example 3e61], for which, in the test with eotaxin-3 release, the concentration for a half-maximal effect (EC50) worked out at 3.5 nM. In addition, the DC50 at STAT6 was found to be 1.4 nM.

Regarding `C[C@H]1CN(Cc2ccc3c(c2)n(C)c(=O)n3[C@@H]2CCC(=O)NC2=O)CCN1CC1CCN(C(=O)c2ccc(C3CCN([C@@H](C)c4cc5c(-c6ccc(N)nc6)ccnc5n4C)CC3)cc2)CC1` (single isomer, unassigned) [Example 3e49], the EC50 in the test on eotaxin-3 release is 1.4 nM. Further, the DC50 at STAT6 is 0.3 nM.

With `C[C@H]1CN(Cc2ccc3c(c2)n(C)c(=O)n3C2CCC(=O)NC2=O)CCN1CC1(F)CCN(C(=O)c2ccc(C3CCN([C@@H](C)c4cc5c(-c6ccc(N)nc6)ccnc5n4C)CC3)cc2)CC1` (stereo partly drawn) [Example 3e45, 3-(5-(((S)-4-((1-(4-(1-((S)-1-(4-(6-aminopyridin-3-yl)-1-methyl-1H-pyrrolo[2,3-b]pyridin-2-yl)ethyl)piperidin-4-yl)benzoyl)-4-fluoropiperidin-4-yl)methyl)-3-methylpiperazin-1-yl)methyl)-3-methyl-2-oxo-2,3-dihydro-1H-benzo[d]imidazol-1-yl)piperidine-2,6-dione], the concentration giving a half-maximal response (EC50) in the test with eotaxin-3 release was found to be 2.1 nM. Besides, the half-maximal degradation concentration (DC50) at STAT6 was 0.8 nM.

Turning to `C[C@H]1CN(Cc2ccc3c(c2)n(C)c(=O)n3C2CCC(=O)NC2=O)CCN1CC1CCN(C(=O)c2ccc(C3CCN([C@@H](C)c4cc5c(-c6ccc7[nH]c(=O)n(C)c7c6)ccnc5n4C)CC3)cc2)CC1` (stereo partly drawn) [Example 3e37, 3-(3-methyl-5-(((S)-3-methyl-4-((1-(4-(1-((S)-1-(1-methyl-4-(3-methyl-2-oxo-2,3-dihydro-1H-benzo[d]imidazol-5-yl)-1H-pyrrolo[2,3-b]pyridin-2-yl)ethyl)piperidin-4-yl)benzoyl)piperidin-4-yl)methyl)piperazin-1-yl)methyl)-2-oxo-2,3-dihydro-1H-benzo[d]imidazol-1-yl)piperidine-2,6-dione], the EC50 with eotaxin-3 release was 1.4 nM. Further, the half-maximal degradation concentration (DC50) on STAT6 was determined as 0.2 nM.

For the compound `CNc1ccc(-c2ccnc3c2cc([C@H](C)N2CCC(c4ccc(C(=O)N5CCC(CN6CCN(Cc7ccc8c(c7)n(C7CC7)c(=O)n8[C@@H]7CCC(=O)NC7=O)C[C@@H]6C)CC5)cc4)CC2)n3C)cn1` (single isomer, unassigned) [Example 3h27], the EC50 in the test with eotaxin-3 release is 5.8 nM. The DC50 on STAT6 was found to be 1.8 nM.

On to `C[C@@H](c1cc2c(-c3ccc(N)nc3)ccnc2n1C)N1CCC(c2ccc(C(=O)N3CCC(CN4CCN(Cc5ccc6c(c5)n(CCO)c(=O)n6C5CCC(=O)NC5=O)CC4)CC3)cc2)CC1` (stereo partly drawn) [Example 3e36, 3-(5-((4-((1-(4-(1-((S)-1-(4-(6-aminopyridin-3-yl)-1-methyl-1H-pyrrolo[2,3-b]pyridin-2-yl)ethyl)piperidin-4-yl)benzoyl)piperidin-4-yl)methyl)piperazin-1-yl)methyl)-3-(2-hydroxyethyl)-2-oxo-2,3-dihydro-1H-benzo[d]imidazol-1-yl)piperidine-2,6-dione], for which the EC50 in the test with eotaxin-3 release is 23.7 nM. On STAT6 (read-out: STAT6 degradation Emax (%)), the maximum response (Emax) (as a rule, the maximal effect, on the per cent scale that the assay sets) was 70 to 80%.

Take `C[C@H]1CN(Cc2ccc3c(c2)n(C)c(=O)n3[C@@H]2CCC(=O)NC2=O)CCN1CC1CCN(C(=O)c2ccc(C3CCN(Cc4cc5c(-c6ccc(N)nc6)ccnc5n4C)CC3)cc2)CC1` (single isomer, unassigned) [Example 3e20]: in the test on eotaxin-3 release, the half-maximal effective concentration (EC50) was determined as 29.8 nM. Moreover, the DC50 on STAT6 stood at 1.1 nM.

As to `C[C@H]1CN(Cc2ccc3c(c2)n(C2CC2)c(=O)n3C2CCC(=O)NC2=O)CCN1CC1CCN(C(=O)c2ccc(C3CCN([C@@H](C)c4cc5c(-c6ccc(N)nc6)ccnc5n4C)CC3)cc2)CC1` (stereo partly drawn) [Example 3e17, 3-(5-(((S)-4-((1-(4-(1-((S)-1-(4-(6-aminopyridin-3-yl)-1-methyl-1H-pyrrolo[2,3-b]pyridin-2-yl)ethyl)piperidin-4-yl)benzoyl)piperidin-4-yl)methyl)-3-methylpiperazin-1-yl)methyl)-3-cyclopropyl-2-oxo-2,3-dihydro-1H-benzo[d]imidazol-1-yl)piperidine-2,6-dione], the concentration for a half-maximal effect (EC50) in the test on eotaxin-3 release is 2.8 nM. For the same compound, on STAT6, the DC50 is 0.8 nM.

As to `CNc1ccc(-c2ccnc3c2cc([C@H](C)N2CC=C(c4c(C)cc(C(=O)N5CCC(CN6CCN(Cc7ccc8c(c7)C7(CCC7)C(=O)N8C7CCC(=O)NC7=O)C[C@@H]6C)CC5)cc4F)CC2)n3C)cn1` (stereo partly drawn) [Example 3h47, 3-(5′-(((S)-4-((1-(3-fluoro-5-methyl-4-(1-((S)-1-(1-methyl-4-(6-(methylamino)pyridin-3-yl)-1H-pyrrolo[2,3-b]pyridin-2-yl)ethyl)-1,2,3,6-tetrahydropyridin-4-yl)benzoyl)piperidin-4-yl)methyl)-3-methylpiperazin-1-yl)methyl)-2′-oxospiro[cyclobutane-1,3′-indolin]-1′-yl)piperidine-2,6-dione], the EC50 in the test with eotaxin-3 release came to 8.8 nM. Besides, the 50% degradation concentration (DC50) on STAT6 was found to be 7 nM.

`CNc1ccc(-c2ccnc3c2cc([C@H](C)N2CC=C(c4c(C)cc(C(=O)N5CCC(CN6CCN(Cc7ccc8c(c7)C(C)(C)C(=O)N8C7CCC(=O)NC7=O)C[C@@H]6C)CC5)cc4F)CC2)n3C)cn1` (stereo partly drawn) [Example 3h18, 3-(5-(((S)-4-((1-(3-fluoro-5-methyl-4-(1-((S)-1-(1-methyl-4-(6-(methylamino)pyridin-3-yl)-1H-pyrrolo[2,3-b]pyridin-2-yl)ethyl)-1,2,3,6-tetrahydropyridin-4-yl)benzoyl)piperidin-4-yl)methyl)-3-methylpiperazin-1-yl)methyl)-3,3-dimethyl-2-oxoindolin-1-yl)piperidine-2,6-dione]: the EC50 with eotaxin-3 release is 12.3 nM. In addition, the 50% degradation concentration (DC50) on STAT6 was 6.3 nM.

Regarding `C[C@H]1CN(Cc2ccc3c(c2)n(C)c(=O)n3C2CCC(=O)NC2=O)CCN1CC1CCN(C(=O)c2ccc(C3CCN([C@@H](C)c4cc5c(-c6ncc(N)cc6F)ccnc5n4C)CC3)cc2)CC1` (stereo partly drawn) [Example 3e38, 3-(5-(((S)-4-((1-(4-(1-((S)-1-(4-(5-amino-3-fluoropyridin-2-yl)-1-methyl-1H-pyrrolo[2,3-b]pyridin-2-yl)ethyl)piperidin-4-yl)benzoyl)piperidin-4-yl)methyl)-3-methylpiperazin-1-yl)methyl)-3-methyl-2-oxo-2,3-dihydro-1H-benzo[d]imidazol-1-yl)piperidine-2,6-dione], in the test on eotaxin-3 release, the EC50 is 7.8 nM. Further, the DC50 on STAT6 amounted to 1 nM.

With `C[C@H]1CN(Cc2ccc3c(c2)n(C2CC2)c(=O)n3C2CCC(=O)NC2=O)CCN1CC1CCN(C(=O)c2ccc(C3CCN(Cc4cc5c(-c6ccc(N)nc6)ccnc5n4C)CC3)cc2)CC1` (stereo partly drawn) [Example 3e13, 3-(5-(((S)-4-((1-(4-(1-((4-(6-aminopyridin-3-yl)-1-methyl-1H-pyrrolo[2,3-b]pyridin-2-yl)methyl)piperidin-4-yl)benzoyl)piperidin-4-yl)methyl)-3-methylpiperazin-1-yl)methyl)-3-cyclopropyl-2-oxo-2,3-dihydro-1H-benzo[d]imidazol-1-yl)piperidine-2,6-dione], the concentration for a half-maximal effect (EC50) with eotaxin-3 release was 37.6 nM. The DC50 at STAT6 is 0.9 nM and 1.1 nM.

Turning to `C[C@H]1CN(Cc2ccc3c(c2)n(C2CC2)c(=O)n3[C@@H]2CCC(=O)NC2=O)CCN1CC1CCN(C(=O)c2ccc(C3CCN([C@@H](C)c4cc5c(-c6ccc(N)nc6)ccnc5n4C)CC3)cc2)CC1` (single isomer, unassigned) [Example 3e51], the concentration giving a half-maximal response (EC50) in the test with eotaxin-3 release was determined as 3.1 nM. In addition, the DC50 on STAT6 is 0.8 nM.

`C[C@H]1CN(Cc2ccc3c(c2)n(C)c(=O)n3[C@H]2CCC(=O)NC2=O)CCN1CC1CCN(C(=O)c2ccc(C3CCN(Cc4cc5c(-c6ccc(N)nc6)ccnc5n4C)CC3)cc2)CC1` (single isomer, unassigned) [Example 3e19]: in the test on eotaxin-3 release, the concentration for a half-maximal effect (EC50) turned out to be 20.9 nM. Moreover, the DC50 at STAT6 was found to be 0.7 nM.

Regarding `C[C@@H](c1cc2c(-c3ccc(N)nc3)ccnc2n1C)N1CCC(c2ccc(C(=O)N3CCC(CN4CCN(Cc5cc6c(cc5F)n(C5CCC(=O)NC5=O)c(=O)n6C)CC4)CC3)cc2)CC1` (stereo partly drawn) [Example 3e33, 3-(5-((4-((1-(4-(1-((S)-1-(4-(6-aminopyridin-3-yl)-1-methyl-1H-pyrrolo[2,3-b]pyridin-2-yl)ethyl)piperidin-4-yl)benzoyl)piperidin-4-yl)methyl)piperazin-1-yl)methyl)-6-fluoro-3-methyl-2-oxo-2,3-dihydro-1H-benzo[d]imidazol-1-yl)piperidine-2,6-dione], the EC50 with eotaxin-3 release stood at 4.9 nM. Besides, the DC50 at STAT6 is 1.8 nM.

For `C[C@H]1CN(Cc2ccc3c(c2)n(C)c(=O)n3[C@H]2CCC(=O)NC2=O)CCN1CC1CCN(C(=O)c2ccc(C3CCN([C@@H](C)c4cc5c(-c6ccc(N)nc6)ccnc5n4C)CC3)cc2)CC1` (single isomer, unassigned) [Example 3e46], the EC50 in the test with eotaxin-3 release was determined as 0.8 nM. The DC50 on STAT6 came to 0.3 nM.
